{"source": "patent US4016159A", "about": "“Acylamino-cephem-carboxylic acids containing an amidino or guanidino group in the molecule” (Hoechst Aktiengesellschaft, priority 1973, dated 1977)", "format_in_all_cases": "cell-based", "key": {"Streptococcus pyogenes A": {"tested_on": "Streptococcus pyogenes A", "test": "Minimum inhibition concentration (MIC), Table 3", "conditions": "Germ: Streptococcus pyogenes A; for MIC: read-out: Minimum inhibition concentration MIC", "description": "Minimum inhibition concentration MIC in γ/ml\nGerm: Streptococcus pyogenes A"}, "Streptococcus D": {"tested_on": "Streptococcus D", "test": "Minimum inhibition concentration (MIC), Table 4", "conditions": "Germ: Streptococcus D; for MIC: Streptococcus, read-out: Minimum inhibition concentration (MIC)", "description": "(§1) Minimum inhibition concentration (MIC) in γ/ml"}, "[1]": {"tested_on": "Staphylococcus aureus 285", "test": "Minimum inhibition concentration (MIC), Table 1", "conditions": "for MIC: Staphylococcus aureus, 285, Germ: Staphylococcus aureus 285, read-out: Minimum inhibition concentration (MIC); for Minimum inhibition concentration (MIC): Germ: Staphylococcus aureus 285", "description": "as §1\nGerm: Staphylococcus aureus 285"}, "[2]": {"tested_on": "Staphylococcus aureus SG 511", "test": "Minimum inhibition concentration (MIC), Table 5", "conditions": "Staphylococcus aureus, SG511, Germ: Staphylococcus aureus SG 511; read-out: Minimum inhibition concentration (MIC)", "description": "as §1\nGerm: Staphylococcus aureus SG 511"}}, "data": [{"smiles": "CCCCCCNC(=N)c1ccc(OCC(=O)NC2C(=O)N3C(C(=O)O)=C(CSc4nnc(C)s4)CSC23)cc1", "note": "(stereo not drawn) [Example 33, 3-[(5-methyl-1,3,4-thiadiazole-2-yl)-thiomethyl]-7-[4-(N-n-hexylamidion)-phenoxyacetamido]-Δ 3-cephem-4-carboxylic acid]", "values": [{"measurement": "MIC", "setting": "Streptococcus pyogenes A", "result": "0.000391 to 0.0078", "unit": "µg/mL"}, {"measurement": "MIC", "setting": "Streptococcus D", "result": "0.196 to 6.25", "unit": "µg/mL"}, {"measurement": "MIC", "setting": "[1]", "result": "0.156 to 0.391", "unit": "µg/mL"}, {"measurement": "MIC", "setting": "[2]", "result": "0.0625 to 0.078", "unit": "µg/mL"}]}, {"smiles": "CC(C)c1csc(SCC2=C(C(=O)O)N3C(=O)C(NC(=O)Cc4ccc(C5=NCCN5)cc4)C3SC2)n1", "note": "(stereo not drawn) [Example 112, 3-[(4-isopropyl-thiazole-2-yl)-thiomethyl]-7-[4-(imidazoline-2-yl)-phenylacetamido]-Δ3-cephem-4-carboxylic acid]", "values": [{"measurement": "MIC", "setting": "Streptococcus pyogenes A", "result": "0.000391 to 0.0078", "unit": "µg/mL"}, {"measurement": "MIC", "setting": "Streptococcus D", "result": "0.196 to 6.25", "unit": "µg/mL"}, {"measurement": "MIC", "setting": "[1]", "result": "0.156 to 0.391", "unit": "µg/mL"}, {"measurement": "MIC", "setting": "[2]", "result": "0.0625 to 0.078", "unit": "µg/mL"}]}, {"smiles": "N=C(N)c1ccc(OCC(=O)NC2C(=O)N3C(C(=O)O)=C(CSc4nnc(-c5ccccc5)o4)CSC23)cc1", "note": "(stereo not drawn) [Example 28, 3-[(5-5-phenyl-1,3,4-oxadiazole-2-yl)-thiomethyl]-7-(4-amidino-phenoxyacetamido)-Δ 3-cephem-4-carboxylic acid]", "values": [{"measurement": "MIC", "setting": "Streptococcus pyogenes A", "result": "0.000391 to 0.0078", "unit": "µg/mL"}, {"measurement": "Minimum inhibition concentration (MIC)", "setting": "Streptococcus D", "result": "10 to 50", "unit": "µg/mL"}, {"measurement": "Minimum inhibition concentration (MIC)", "setting": "[1]", "result": "0.156 to 0.391", "unit": "µg/mL"}, {"measurement": "MIC", "setting": "[2]", "result": "0.0196 to 0.0391", "unit": "µg/mL"}]}, {"smiles": "O=C(Cc1ccc(C2=NCCCN2)cc1)NC1C(=O)N2C(C(=O)O)=C(CSc3nnc(-c4ccccc4)o3)CSC12", "note": "(stereo not drawn) [Example 103, 3-[(5-phenyl-1,3,4-oxadiazole-2-yl)-thiomethyl]-7-[4-(1,4,5,6-tetrahydropyrimide-2-yl)-phenylacetamido]-Δ3-cephem-4-carboxylic acid]", "values": [{"measurement": "Minimum inhibition concentration (MIC)", "setting": "Streptococcus pyogenes A", "result": "0.000391 to 0.0078", "unit": "µg/mL"}, {"measurement": "Minimum inhibition concentration (MIC)", "setting": "Streptococcus D", "result": "10 to 50", "unit": "µg/mL"}, {"measurement": "Minimum inhibition concentration (MIC)", "setting": "[1]", "result": "0.156 to 0.391", "unit": "µg/mL"}, {"measurement": "MIC", "setting": "[2]", "result": "0.0625 to 0.078", "unit": "µg/mL"}]}, {"smiles": "CCCCc1nnc(SCC2=C(C(=O)O)N3C(=O)C(NC(=O)Cc4ccc(C(=N)N)cc4)C3SC2)o1", "note": "(stereo not drawn) [Example 54, 3-[(5-n-butyl-1,3,4-oxadiazole-2-yl)-thiomethyl]-7-(4-amidino-phenylacetamido)-Δ 3-cephem-4-carboxylic acid]", "values": [{"measurement": "MIC", "setting": "Streptococcus pyogenes A", "result": "0.000391 to 0.0078", "unit": "µg/mL"}, {"measurement": "MIC", "setting": "Streptococcus D", "result": "10 to 50", "unit": "µg/mL"}, {"measurement": "MIC", "setting": "[1]", "result": "0.156 to 0.391", "unit": "µg/mL"}, {"measurement": "MIC", "setting": "[2]", "result": "0.0196 to 0.0391", "unit": "µg/mL"}]}, {"smiles": "O=C(Cc1ccc(C2=NCCN2)cc1)NC1C(=O)N2C(C(=O)O)=C(CSc3nnc(-c4ccccc4)s3)CSC12", "note": "(stereo not drawn) [Example 52, 3-[(5-phenyl-1,3,4-thiadiazole-2-yl)-thiomethyl]-7-[4-(imidazoline-2-yl)-phenylacetamido] -Δ 3-cephem-4-carboxylic acid]", "values": [{"measurement": "MIC", "setting": "Streptococcus pyogenes A", "result": "0.000391 to 0.0078", "unit": "µg/mL"}, {"measurement": "MIC", "setting": "Streptococcus D", "result": "0.196 to 6.25", "unit": "µg/mL"}, {"measurement": "MIC", "setting": "[1]", "result": "0.156 to 0.391", "unit": "µg/mL"}, {"measurement": "MIC", "setting": "[2]", "result": "0.0196 to 0.0391", "unit": "µg/mL"}]}, {"smiles": "O=C(COc1ccc(C2=NCCCN2)cc1)NC1C(=O)N2C(C(=O)O)=C(CSc3nnc(-c4ccccc4)o3)CSC12", "note": "(stereo not drawn) [Example 51, 3-[(5-phenyl-1,3,4-oxadiazole-2-yl)-thiomethyl]-7-[4-(1,4,5,6-tetrahydropyrimide-2-yl)-phenoxyacetamido]-Δ 3-cephem-4-carboxylic acid]", "values": [{"measurement": "MIC", "setting": "Streptococcus pyogenes A", "result": "0.000391 to 0.0078", "unit": "µg/mL"}, {"measurement": "MIC", "setting": "Streptococcus D", "result": "0.196 to 6.25", "unit": "µg/mL"}, {"measurement": "MIC", "setting": "[1]", "result": "0.156 to 0.391", "unit": "µg/mL"}, {"measurement": "MIC", "setting": "[2]", "result": "0.0196 to 0.0391", "unit": "µg/mL"}]}, {"smiles": "Cc1nnc(SCC2=C(C(=O)O)N3C(=O)C(NC(=O)COc4ccc(C(=N)N)cc4)C3SC2)o1", "note": "(stereo not drawn) [Example 38, 3-[(5-methyl-1,3,4-oxadiazole-2-yl)-thiomethyl]-7-(4-amidinophenoxy-acetamido)-Δ 3-cephem-4-carboxylic acid]", "values": [{"measurement": "MIC", "setting": "Streptococcus pyogenes A", "result": "0.008 to 0.0156", "unit": "µg/mL"}, {"measurement": "MIC", "setting": "Streptococcus D", "result": "10 to 50", "unit": "µg/mL"}, {"measurement": "MIC", "setting": "[1]", "result": "0.156 to 0.391", "unit": "µg/mL"}, {"measurement": "MIC", "setting": "[2]", "result": "0.0625 to 0.078", "unit": "µg/mL"}]}, {"smiles": "N=C(N)c1ccc(CC(=O)NC2C(=O)N3C(C(=O)O)=C(CSc4nnc(-c5ccccc5)s4)CSC23)cc1", "note": "(stereo not drawn) [Example 57, 3-[(5-phenyl-1,3,4-thiadiazole-2-yl)-thiomethyl]-7-(4-amidinophenylacetamido)-Δ3-cephem-4-carboxylic acid]", "values": [{"measurement": "MIC", "setting": "Streptococcus pyogenes A", "result": "0.000391 to 0.0078", "unit": "µg/mL"}, {"measurement": "MIC", "setting": "Streptococcus D", "result": "10 to 50", "unit": "µg/mL"}, {"measurement": "MIC", "setting": "[1]", "result": "0.156 to 0.391", "unit": "µg/mL"}, {"measurement": "MIC", "setting": "[2]", "result": "0.0196 to 0.0391", "unit": "µg/mL"}]}, {"smiles": "N=C(N)c1ccc(OCC(=O)NC2C(=O)N3C(C(=O)O)=C(CSc4nnc(-c5ccccc5)s4)CSC23)cc1", "note": "(stereo not drawn) [Example 65, 3-[(5-phenyl-1,3,4-thiadiazole-2-yl)-thiomethyl]-7-(4-amidinophenoxyacetamido)-Δ 3-cephem-4-carboxylic acid]", "values": [{"measurement": "MIC", "setting": "Streptococcus pyogenes A", "result": "0.000391 to 0.0078", "unit": "µg/mL"}, {"measurement": "MIC", "setting": "Streptococcus D", "result": "10 to 50", "unit": "µg/mL"}, {"measurement": "MIC", "setting": "[1]", "result": "0.156 to 0.391", "unit": "µg/mL"}, {"measurement": "MIC", "setting": "[2]", "result": "0.0196 to 0.0391", "unit": "µg/mL"}]}, {"smiles": "CCCCc1csc(SCC2=C(C(=O)O)N3C(=O)C(NC(=O)Cc4ccc(C5=NCCN5)cc4)C3SC2)n1", "note": "(stereo not drawn) [Example 113]", "values": [{"measurement": "MIC", "setting": "Streptococcus pyogenes A", "result": "0.000391 to 0.0078", "unit": "µg/mL"}, {"measurement": "MIC", "setting": "Streptococcus D", "result": "0.196 to 6.25", "unit": "µg/mL"}, {"measurement": "MIC", "setting": "[1]", "result": "0.156 to 0.391", "unit": "µg/mL"}, {"measurement": "MIC", "setting": "[2]", "result": "0.0625 to 0.078", "unit": "µg/mL"}]}, {"smiles": "O=C(Cc1ccc(C2=NCCCN2)cc1)NC1C(=O)N2C(C(=O)O)=C(CSc3nc4ccccc4s3)CSC12", "note": "(stereo not drawn) [Example 85, 3-[benzothiazole-2-yl-thiomethyl]-7-[4-(1,4,5,6-tetrahydropyrimide-2-yl)-phenylacetamido]-Δ 3-cephem-4-carboxylic acid]", "values": [{"measurement": "MIC", "setting": "Streptococcus pyogenes A", "result": "0.000391 to 0.0078", "unit": "µg/mL"}, {"measurement": "MIC", "setting": "Streptococcus D", "result": "10 to 50", "unit": "µg/mL"}, {"measurement": "MIC", "setting": "[1]", "result": "0.156 to 0.391", "unit": "µg/mL"}, {"measurement": "MIC", "setting": "[2]", "result": "0.0625 to 0.078", "unit": "µg/mL"}]}]}
